Source: patent US12653776B2, “Methods of treatment of cancer by continuous infusion of coenzyme Q10” (priority 2013, dated 2026)

Experiment: First-in-human Phase 1 study (CTL0510), 4-hour IV infusion 3 times weekly: safety
Settings: in vivo
Protocol: The first-in-human Phase 1 study with coenzyme Q10 nanosuspension (40 mg/ml) was conducted in 50 patients with advanced solid tumors. The objectives were to assess the safety, maximum tolerated dose, PK and PD of coenzyme Q10, specifically a 4% coenzyme Q10 nanosuspension formulation (as described in WO 2011/112900, the entire contents of which are expressly incorporated herein by reference), administered as a 4-hour IV infusion 3 times weekly in 28-day cycles. Nine dose levels were explored ranting from 5.62 to 139 mg/kg. Plasma concentration profiles and PK parameters were determined from blood samples collected pre-dose and at intervals to 48 hours post-dose.

In the case of Vitamin K [reference compound], the “INR after Vitamin K administration” value is reported as “all INRs decreased to grade 1 or resolved”.
